Experimental data published in US11324762B2, “Deuterated derivatives of psilocybin and uses thereof” (Lennham Pharmaceuticals, Inc., priority 2020, dated 2022).

What was measured:
Type in all cases: in vitro ADME
human hepatocytes = assay: metabolic stability and metabolite formation in human hepatocytes; conditions: 1 μM, 60 min
Method: (§1) A study was conducted to assess the metabolic stability and metabolite formulation of psilocin and d10-psilocin (the compound of Formula (IB-1)) in human hepatocytes under the conditions set forth in Table 1.

[1] = as above; conditions: 1.0 million viable cells/ml, 37° C., 0-60 min
Method: as §1

human MAO-A [2] = target: T1, human MAO-A (Homo sapiens, UniProt P21397); assay: metabolism of psilocin by human MAO-A (Example 2); conditions: 0.2 and 2 μM, protein 0.03-1 mg/ml, 0-30 min, FIGS. 1A & 1B
T1 sequence (P21397 1-527): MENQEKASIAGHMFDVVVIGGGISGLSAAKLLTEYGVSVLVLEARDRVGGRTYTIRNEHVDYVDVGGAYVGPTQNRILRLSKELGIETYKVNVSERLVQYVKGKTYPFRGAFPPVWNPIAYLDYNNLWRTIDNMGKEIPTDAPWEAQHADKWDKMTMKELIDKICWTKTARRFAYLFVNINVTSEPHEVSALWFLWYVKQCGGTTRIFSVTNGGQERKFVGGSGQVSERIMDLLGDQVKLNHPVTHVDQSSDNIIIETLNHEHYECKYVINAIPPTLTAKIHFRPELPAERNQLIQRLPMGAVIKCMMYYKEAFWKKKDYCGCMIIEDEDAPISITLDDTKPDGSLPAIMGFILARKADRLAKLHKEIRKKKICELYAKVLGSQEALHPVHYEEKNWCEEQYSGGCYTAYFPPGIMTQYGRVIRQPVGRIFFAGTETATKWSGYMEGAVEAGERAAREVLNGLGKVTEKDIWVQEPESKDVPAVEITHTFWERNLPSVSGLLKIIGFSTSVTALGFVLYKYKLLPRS

human MAO-A [3] = target: T1, human MAO-A; assay: metabolism of psilocin and d10-psilocin by human MAO-A (Example 3); conditions: 0.2 μM, protein 1 mg/ml, 0-30 min, FIG. 2
Method: A study was conducted to assess the metabolism of psilocin and d10-psilocin (the compound of Formula (IB-1)) by human MAO-A under the conditions set forth in Table 3.

Row | SMILES | parent remained after the 60-minute incubation (human hepatocytes) | half-life at 1 μM [1] | metabolism by human MAO-A (human MAO-A [2]) | metabolite 4-hydroxy-indole-3-acetic acid after 60-minute incubation (human hepatocytes) | rate of metabolism by human MAO-A compared with psilocin (human MAO-A [3])
1 | CN(C)CCc1c[nH]c2cccc(O)c12 [psilocin, 4-hydroxy-N,N-dimethyltryptamine] | approximately 78% | 2.97 h | metabolized by human MAO-A |  | 
2 | [2H]C([2H])([2H])N(C([2H])([2H])[2H])C([2H])([2H])C([2H])([2H])c1c[nH]c2cccc(O)c12 [d10-psilocin] | approximately 84% | 4.97 h |  | undetected | metabolized more slowly by human MAO-A than psilocin
